Data on 1 compound can be found in patent US10155726B2, “Substituted pyridines and uses thereof” (PELOTON THERAPEUTICS, INC., priority 2015, dated 2018).

Entries after “also recorded” stand apart in the source; their conditions may differ.

The test system of one assay is 786-O-Hif-Luc cells. Put plainly: Luciferase Assay. The class given is cell-based. Conditions: about 24 hours. As to the method:
786-O-Hif-Luc single clone cells were obtained by infecting 786-O cells (ATCC® CRL-1932™) with commercial lentivirus that delivers a luciferase gene driven by multiple HIF responsive elements (Cignal Lenti HIF Reporter (luc): CLS-007L, Qiagen) at Multiplicity of Infection (MOI) of 25 for 24 hours. […] A pool of infected cells were then selected against 2 μg/mL of puromycin (P8833, Sigma) for 10 days followed by limited dilution to select single clones. […] For the luciferase assay, about 7500 786-O-Hif-Luc cells in 90 μL growth medium were seeded into each well of a 96-well white opaque plate (08-771-26, Fisher scientific) a day before treatment with the layout presented in FIG. 4. […] Each concentration was tested in triplicate. After about 24 hours, luciferase activity was determined using ONE-Glo Luciferase Assay Reagent (E6110, Promega) following the manufacturer's recommended procedure. EC50 were calculated using Dotmatics software.

A further assay deals with 786-O cells. Put plainly: VEGF ELISA Assay. As to conditions: Homo sapiens, 786-0; VEGF concentration in culture medium of 786-O cells. Format: cell-based. As to the method: About 7500 786-O cells in 180 μL of growth medium were seeded into each well of a 96-well, white, clear bottom plate (07-200-566, Fisher Scientific) on day one in the layout presented in FIG. 3. […] Each concentration was plated in duplicate. About 20 hours later, medium was removed by suction and each well was supplied with 180 μL of growth medium. About 20 μl freshly-made 10× compound stocks were added to each well. […] The EC50 was calculated by GraphPad Prism using the dose-response-inhibition (four parameter) equation. The cell-seeded plate was then subjected to CellTiter-Glo luminescence cell viability assay (Promega) by adding 50 μL of Celltiter Glo reagent into each well and shaking the plate for 8 minutes at 550 rpm (Thermomixer R, Eppendorf) then the luminescence signal immediately read in a plate reader (3 second delay, 0.5 second/well integration time, Synergy 2 multi Detection Microplate reader).

Assay [1] concerns the target T1, HIF-2α HIS TAG-PASB Domain (Homo sapiens, UniProt Q99814).
T1 construct: 100 nM HIF-2α HIS TAG-PASB Domain
The assay is described as follows: HIF-2α Scintillation Proximity Assay (SPA). Format: binding. As to conditions: displacement of tritiated probe from HIF-2α PAS-B domain. As to the method:
The total assay volume was about 100 μL in the following configuration: 2 μL compound in 100% DMSO, 88 μL buffer with protein and probe and 10 μL of SPA beads. […] The percent inhibition was determined and IC50 values were calculated using the Dotmatics system based on the following equation: % inhibition=[(high control−sample)/(high control−low control)]×100.

The subject of the next assay is human VEGFA. The assay is described as follows: PK/PD study: human VEGFA in plasma of 786-O xenograft bearing mice by ELISA. The class given is in vivo, SCID/Biege mice. Conditions: 10 mg/kg oral gavage, six doses at 12 hour interval, 12 hours post last dose. As to the method: (§1) When the xenografts reached about 750 mm^3 in size, the tumor bearing mice were randomly grouped into four groups (n=3). […] All animals were sacrificed at 12 hours post last dose. Tumors and plasma were collected from each animal. Total RNA was extracted from the tumors, and the expression levels of putative HIF-2α regulated genes were determined by qRT-PCR. […] The level of human VEGFA was assessed using an ELISA assay.
A general note: Xenograft models place foreign cells or tissue in a host animal.

The subject of assay [2] is HIF-2α target genes VEGF, PAI-1 and CCND1. The assay is described as follows: PK/PD study: expression of HIF-2α regulated genes in 786-O tumor xenografts by qRT-PCR. Format: in vivo, SCID/Biege mice. As to conditions: 10 mg/kg oral gavage, six doses at 12 hour interval, 12 hours post last dose. As to the method: as §1
A general note: In qPCR the cycle at which signal appears reflects the starting amount.

T1 sequence (Q99814 239-348): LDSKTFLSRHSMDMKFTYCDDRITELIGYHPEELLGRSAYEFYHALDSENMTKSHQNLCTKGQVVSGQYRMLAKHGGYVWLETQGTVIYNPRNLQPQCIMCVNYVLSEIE

As usually defined, the EC50 is the midpoint of the concentration-response curve. In general, IC50 refers to the concentration that gives 50% inhibition. A higher IC50 goes with lower potency. For `N#Cc1cncc(Oc2cnc(C(F)(F)F)c3c2[C@@H](F)[C@@H](F)[C@H]3O)c1` [Compound 34, 5-(((5R,6S,7S)-5,6-difluoro-7-hydroxy-1-(trifluoromethyl)-6,7-dihydro-5H-cyclopenta[c]pyridin-4-yl)oxy)nicotinonitrile], the EC50 in the assay on 786-O-Hif-Luc cells and with 786-O cells was 50 to 249 nM each time. In assay [1], the IC50 was below 50 nM. In addition, the “level of human VEGFA in plasma of 786-O xenograft bearing mice” value in the assay on human VEGFA is given as “decreased; also recorded: significant reduction”. Besides, the “mRNA levels of HIF-2α target genes (VEGF, PAI-1, CCND1) in 786-O xenografts” value in assay [2] is “decreased; also recorded: significant reduction”.
